# How the values were obtained:
# [1] = test system: rabbit ear hypertrophic scarring model; conditions: topical application to skin tissue; '523 FIG. 13; cited from earlier work
# dermal fibroblasts = conditions: cited from earlier work
# [2] = test system: atrophic acne scarring on the face; assay: Topical kynurenic acid (0.5% by weight) cream for reducing appearance of atrophic acne scarring (individual user reports); format: in vivo, human; conditions: person
# From the text: FIG. 1A is a photographic representation of a target facial skin area of a subject with treatment-resistant stable atrophic scarring from acne before application of topical kynurenic acid (0.5% by weight) cream.
# FIG. 1B is a photographic representation of the target facial skin area of the subject of FIG. 1A after bidaily use of topical kynurenic acid (0.5% by weight) for 8 weeks. […] The dashed black box in each image highlights the similar target area on the right cheek region in both images for comparison.
# I. A topical cream was made as follows, kynurenic acid was solubilized in a phosphate buffered solution of 1 M NaOH and the pH was then adjusted to 5.5 at room temperature, this KynA solution was then added with steady mixing to a dermatological compounding base (Glaxal Base™, WellSpring, Ont., Canada) and adjusted to a pH of 6 before packaging in poly bottles. Topical cream was made at 0.15%, 0.25%, 0.4%, and 0.5% kynurenic acid by weight (Papp et al., 2018).
# A person presented with significant atrophic acne scarring on the face and self-reported that their acne scars had been treatment resistant for >20 years. The person applied a topical cream containing 0.5% kynurenic acid by weight twice daily for a 3-month period to the site of the atrophic acne scarring, an application rate of approximately 17 ug of kynurenic acid per cm^2 of skin per application. Initial dermatological healing can be followed by visual inspection of the site. […] An illustrative image of the “before” and “during use” is shown as FIG. 1.
# A person with atrophic acne scarring on the face self-reported that the scars were “mature”, “stable”, and had persisted for “>3 years”. The person applied a topical cream containing 0.5% kynurenic acid by weight once daily for a 2-month period at an application rate of approximately 2.5-5 micrograms kynurenic acid per square cm of skin per application.
Structure (SMILES),MMP-1 relative to controls [1],collagen relative to controls [1],MMP-1 expression (dermal fibroblasts; '523 FIG. 2),MMP-3 expression (dermal fibroblasts; '523 FIG. 3),collagen 1 expression (dermal fibroblasts; '523 FIG. 10),fibronectin expression (dermal fibroblasts; '523 FIG. 16),"remarks of others on the user's atrophic acne scars ([2]; topical cream 0.5% by weight once daily, 2-month period)","user-reported appearance of holes and indents of atrophic acne scars ([2]; topical cream 0.5% by weight once daily, 2-month period, approx. 2.5-5 micrograms per square cm per application)",time at which the reported reduction in appearance started ([2]; topical cream 0.5% by weight twice daily),"unsolicited feedback from others on appearance of acne [atrophic scarring] ([2]; topical cream 0.5% by weight twice daily, 3-month period)","subject-reported perceived appearance of atrophic acne scarring ([2]; topical cream 0.5% by weight twice daily, 3-month period, approx. 17 ug per cm^2 per application)"
Nc1ccccc1C(=O)CC(N)C(=O)O (racemic) [kynurenine],increased,decreased,–,–,–,–,–,–,–,–,–
O=C(O)c1cc(=O)c2ccccc2[nH]1 [kynurenic acid],–,–,increase,increase,downregulate,downregulate,less visible or less noticeable,less visible and less noticeable and appeared to be filling in,approximately 2 weeks,markedly less apparent,significant reduction
